The values below come from patent publication US12378224B2 (Dong-A Socio Holdings Co., Ltd., priority 2016, dated 2025).

In this assay the target is human MER (528-end) (Homo sapiens (Human), UniProt Q12866). Description: HTRF Kinase Activity Biochemical Assay (KinEASE-TK). The conditions noted are these: 10 uM ATP. In outline: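 Recombinant human MER (528-end) phosphorylated biotin-TK peptide substrate, 1 h at room temperature. Reaction stopped with detection buffer containing 0.375 nM Eu3+-cryptate anti-TK antibody and 0.062 uM streptavidin-XL665, 1 h further. Activity taken as HTRF ratio 665/620 nm ×10,000, 340 nm excitation.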
For orientation: In TR-FRET formats the signal depends on donor and acceptor labels being close together.

Sequence of human MER (528-end) (Q12866 528-999 limits assumed): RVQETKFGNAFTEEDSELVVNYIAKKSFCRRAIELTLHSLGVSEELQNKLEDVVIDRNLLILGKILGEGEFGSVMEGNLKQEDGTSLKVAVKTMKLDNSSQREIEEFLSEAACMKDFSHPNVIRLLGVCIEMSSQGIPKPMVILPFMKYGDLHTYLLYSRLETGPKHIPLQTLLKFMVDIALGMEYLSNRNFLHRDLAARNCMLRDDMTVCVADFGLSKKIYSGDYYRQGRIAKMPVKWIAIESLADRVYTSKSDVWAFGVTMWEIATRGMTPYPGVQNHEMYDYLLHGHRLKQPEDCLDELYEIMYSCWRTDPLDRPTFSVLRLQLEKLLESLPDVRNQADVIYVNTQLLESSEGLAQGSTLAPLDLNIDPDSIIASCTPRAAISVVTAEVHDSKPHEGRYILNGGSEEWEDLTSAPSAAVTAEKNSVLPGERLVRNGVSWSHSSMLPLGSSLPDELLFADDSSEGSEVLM

Turning to `Cn1cc(-c2cnc(N)c(C(=O)N[C@@H]3CCN(C(=O)/C=C/c4ccc5c(c4)OCO5)C3)c2)cn1` [Example 425, (R,E)-2-amino-N-(1-(3-(benzo[d][1,3]dioxol-5-yl)acryloyl)pyrrolidin-3-yl)-5-(1-methyl-1H-pyrazol-4-yl)nicotinamide], the half-inhibitory concentration (IC50) (as a rule, the point on the concentration scale where inhibition reaches its midpoint) was above 1 µM.

Regarding `C/C(=C\c1ccccc1)C(=O)N1CC[C@@H](NC(=O)c2cc(-c3cnn(C)c3)cnc2N)C1` [Example 426, (R,E)-2-amino-5-(1-methyl-1H-pyrazol-4-yl)-N-(1-(2-methyl-3-phenylacryloyl)pyrrolidin-3-yl)nicotinamide], the IC50 was above 1 µM.

`Cn1cc(-c2cnc(N)c(C(=O)N[C@@H]3CCN(C(=O)/C=C/c4ccc(Br)cc4)C3)c2)cn1` [Example 427, (R,E)-2-amino-N-(1-(3-(4-bromophenyl)acryloyl)pyrrolidin-3-yl)-5-(1-methyl-1H-pyrazol-4-yl)nicotinamide] gave an IC50 of 0.1 to 1 µM.

`Cn1cc(-c2cnc(N)c(C(=O)N[C@@H]3CCN(C(=O)/C=C/c4cccc(Br)c4)C3)c2)cn1` [Example 428, (R,E)-2-amino-N-(1-(3-(3-bromophenyl)acryloyl)pyrrolidin-3-yl)-5-(1-methyl-1H-pyrazol-4-yl)nicotinamide] gave an IC50 above 1 µM.

Molecule `CN1CCN(Cc2ccc(/C=C/C(=O)N3CC[C@@H](NC(=O)c4cc(-c5cnn(C)c5)cnc4N)C3)cc2)CC1` [Example 429, (R,E)-2-amino-5-(1-methyl-1H-pyrazol-4-yl)-N-(1-(3-(4-((4-methylpiperazin-1-yl)methyl)phenyl)acryloyl)pyrrolidin-3-yl)nicotinamide] showed an IC50 of 0.1 to 1 µM.

On to `Cn1cc(-c2cnc(N)c(C(=O)N[C@@H]3CCN(C(=O)/C=C/c4ccc(CN5CCN(CCO)CC5)cc4)C3)c2)cn1` [Example 430, (R,E)-2-amino-N-(1-(3-(4-((4-(2-hydroxyethyl)piperazin-1-yl)methyl)phenyl)acryloyl)pyrrolidin-3-yl)-5-(1-methyl-1H-pyrazol-4-yl)nicotinamide], for which the concentration for half-maximal inhibition (IC50) was above 1 µM.

`CN1CCN(Cc2ccc(-c3ccc(/C=C/C(=O)N4CC[C@@H](NC(=O)c5cc(-c6cnn(C)c6)cnc5N)C4)cc3)cc2)CC1` [Example 432, (R,E)-2-amino-5-(1-methyl-1H-pyrazol-4-yl)-N-(1-(3-(4′-((4-methylpiperazin-1-yl)methyl)-[1,1′-biphenyl]-4-yl)acryloyl)pyrrolidin-3-yl)nicotinamide] displayed a half-inhibitory concentration (IC50) above 1 µM.

Consider `COc1ccccc1CC(=O)N1CC[C@@H](NC(=O)c2cc(-c3cnn(C)c3)cnc2N)C1` [Example 436, (R)-2-amino-N-(1-(2-(2-methoxyphenyl)acetyl)pyrrolidin-3-yl)-5-(1-methyl-1H-pyrazol-4-yl)nicotinamide], for which the IC50 is above 1 µM.

In the case of `Cn1cc(-c2cnc(N)c(C(=O)N[C@@H]3CCN(C(=O)c4ccccc4)C3)c2)cn1` [Example 438, (R)-2-amino-N-(1-benzoylpyrrolidin-3-yl)-5-(1-methyl-1H-pyrazol-4-yl)nicotinamide], the IC50 is above 1 µM.

As to `CN1CCN(Cc2ccc(-c3cccc4c(C(=O)N5CC[C@@H](NC(=O)c6cc(-c7cnn(C)c7)cnc6N)C5)cccc34)cc2)CC1` [Example 443, (R)-2-amino-5-(1-methyl-1H-pyrazol-4-yl)-N-(1-(5-(4-((4-methylpiperazin-1-yl)methyl)phenyl)-1-naphthoyl)pyrrolidin-3-yl)nicotinamide], the IC50 is above 1 µM.

As to `Cn1cc(-c2cnc(N)c(C(=O)N[C@@H]3CCN(C(=O)c4cccc5c(-c6ccc(CN7CCC[C@@H]7CO)cc6)cccc45)C3)c2)cn1` [Example 444], the IC50 was above 1 µM.

In turn, `CC(NCc1ccc(-c2cccc3c(C(=O)N4CC[C@@H](NC(=O)c5cc(-c6cnn(C)c6)cnc5N)C4)cccc23)cc1)C1CCN(C)CC1` (some centres unmarked) [Example 445] registered a 50% inhibitory concentration (IC50) above 1 µM.

`CN1CCN(Cc2ccc(Oc3cccc(C(=O)N4CC[C@@H](NC(=O)c5cc(-c6cnn(C)c6)cnc5N)C4)c3)cc2)CC1` [Example 446, (R)-2-amino-5-(1-methyl-1H-pyrazol-4-yl)-N-(1-(3-(4-((4-methylpiperazin-1-yl)methyl)phenoxy)benzoyl)pyrrolidin-3-yl)nicotinamide] showed a 50% inhibitory concentration (IC50) above 1 µM.

In turn, `Cn1cc(-c2cnc(N)c(C(=O)N[C@@H]3CCN(C(=O)c4cccc(Oc5ccc(CN6CCC[C@@H]6CO)cc5)c4)C3)c2)cn1` [Example 447, 2-amino-N—((R)-1-(3-(4-(((R)-2-(hydroxymethyl)pyrrolidin-1-yl)methyl)phenoxy)benzoyl)pyrrolidin-3-yl)-5-(1-methyl-1H-pyrazol-4-yl)nicotinamide] displayed a 50% inhibitory concentration (IC50) above 1 µM.

With `CN1CCN(Cc2ccc(Oc3ccc(C(=O)N4CC[C@@H](NC(=O)c5cc(-c6cnn(C)c6)cnc5N)C4)cc3)cc2)CC1` [Example 448, (R)-2-amino-5-(1-methyl-1H-pyrazol-4-yl)-N-(1-(4-(4-((4-methylpiperazin-1-yl)methyl)phenoxy)benzoyl)pyrrolidin-3-yl)nicotinamide], the IC50 was above 1 µM.

Regarding `Cn1cc(-c2cnc(N)c(C(=O)N[C@@H]3CCN(C(=O)c4ccc(Oc5ccc(CN6CCC[C@@H]6CO)cc5)cc4)C3)c2)cn1` [Example 449], the half-maximal inhibitory concentration (IC50) was above 1 µM.

In turn, `Cn1cc(-c2cnc(N)c(C(=O)N[C@@H]3CCN(C(=O)c4cccc(-c5ccccc5)c4)C3)c2)cn1` [Example 450, (R)—N-(1-([1,1′-biphenyl]-3-carbonyl)pyrrolidin-3-yl)-2-amino-5-(1-methyl-1H-pyrazol-4-yl)nicotinamide] registered an IC50 above 1 µM.

As to `Cn1cc(-c2cnc(N)c(C(=O)N[C@@H]3CCN(C(=O)c4cccc(-c5cnn(C6CCNCC6)c5)c4)C3)c2)cn1` [Example 451, (R)-2-amino-5-(1-methyl-1H-pyrazol-4-yl)-N-(1-(3-(1-(piperidin-4-yl)-1H-pyrazol-4-yl)benzoyl)pyrrolidin-3-yl)nicotinamide], the IC50 was above 1 µM.

`CN1CCN(C(=O)Cc2cccc(-c3cccc(C(=O)N4CC[C@@H](NC(=O)c5cc(-c6cnn(C)c6)cnc5N)C4)c3)c2)CC1` [Example 452, (R)-2-amino-5-(1-methyl-1H-pyrazol-4-yl)-N-(1-(3′-(2-(4-methylpiperazin-1-yl)-2-oxoethyl)-[1,1′-biphenyl]-3-carbonyl)pyrrolidin-3-yl)nicotinamide] registered an IC50 above 1 µM.

As to `CN1CCN(C(=O)Cc2ccc(-c3cccc(C(=O)N4CC[C@@H](NC(=O)c5cc(-c6cnn(C)c6)cnc5N)C4)c3)cc2)CC1` [Example 454, (R)-2-amino-5-(1-methyl-1H-pyrazol-4-yl)-N-(1-(4′-(2-(4-methylpiperazin-1-yl)-2-oxoethyl)-[1,1′-biphenyl]-3-carbonyl)pyrrolidin-3-yl)nicotinamide], the IC50 was above 1 µM.

Molecule `CN1CCN(CCc2ccc(-c3cccc(C(=O)N4CC[C@@H](NC(=O)c5cc(-c6cnn(C)c6)cnc5N)C4)c3)cc2)CC1` [Example 455, (R)-2-amino-5-(1-methyl-1H-pyrazol-4-yl)-N-(1-(4′-(2-(4-methylpiperazin-1-yl)ethyl)-[1,1′-biphenyl]-3-carbonyl)pyrrolidin-3-yl)nicotinamide] registered a half-maximal inhibitory concentration (IC50) above 1 µM.

The molecule `Cn1cc(-c2cnc(N)c(C(=O)N[C@@H]3CCN(C(=O)c4cccc(-c5cccc(C(=O)O)c5)c4)C3)c2)cn1` [Example 456, (R)-3′-(3-(2-amino-5-(1-methyl-1H-pyrazol-4-yl)nicotinamido)pyrrolidine-1-carbonyl)-[1,1′-biphenyl]-3-carboxylic acid] yielded a half-maximal inhibitory concentration (IC50) above 1 µM.

`Cn1cc(-c2cnc(N)c(C(=O)N[C@@H]3CCN(C(=O)c4nc(-c5ccccc5)oc4C(F)(F)F)C3)c2)cn1` [Example 458, (R)-2-amino-5-(1-methyl-1H-pyrazol-4-yl)-N-(1-(2-phenyl-5-(trifluoromethyl)oxazole-4-carbonyl)pyrrolidin-3-yl)nicotinamide] gave an IC50 above 1 µM.

With `Cn1cc(-c2cnc(N)c(C(=O)N[C@@H]3CCN(C(=O)c4cccc(-c5cccc(Cn6cccn6)c5)c4)C3)c2)cn1` [Example 459, (R)—N-(1-(3′-((1H-pyrazol-1-yl)methyl)-[1,1′-biphenyl]-3-carbonyl)pyrrolidin-3-yl)-2-amino-5-(1-methyl-1H-pyrazol-4-yl)nicotinamide], the half-maximal inhibitory concentration (IC50) was above 1 µM.

Take `Cn1cc(-c2cnc(N)c(C(=O)N[C@@H]3CCN(C(=O)c4cccc(-c5cccc(Cn6ccnc6)c5)c4)C3)c2)cn1` [Example 460, (R)—N-(1-(3′-((1H-imidazol-1-yl)methyl)-[1,1′-biphenyl]-3-carbonyl)pyrrolidin-3-yl)-2-amino-5-(1-methyl-1H-pyrazol-4-yl)nicotinamide]: the half-maximal inhibitory concentration (IC50) was above 1 µM.

As for `Cn1cc(-c2cnc(N)c(C(=O)N[C@@H]3CCN(C(=O)c4cccc(-c5cccc(CN6CCOCC6)c5)c4)C3)c2)cn1` [Example 461, (R)-2-amino-5-(1-methyl-1H-pyrazol-4-yl)-N-(1-(3′-(morpholinomethyl)-[1,1′-biphenyl]-3-carbonyl)pyrrolidin-3-yl)nicotinamide], the half-maximal inhibitory concentration (IC50) was above 1 µM.

As for `Cn1cc(-c2cnc(N)c(C(=O)N[C@@H]3CCN(C(=O)c4cccc(-c5cccc(C(=O)N6CCSCC6)c5)c4)C3)c2)cn1` [Example 463, (R)-2-amino-5-(1-methyl-1H-pyrazol-4-yl)-N-(1-(3′-(thiomorpholine-4-carbonyl)-[1,1′-biphenyl]-3-carbonyl)pyrrolidin-3-yl)nicotinamide], the IC50 is above 1 µM.

On to `Cn1cc(-c2cnc(N)c(C(=O)N[C@@H]3CCN(C(=O)c4cccc(-c5cccc(C(=O)N6CCNCC6)c5)c4)C3)c2)cn1` [Example 464, (R)-2-amino-5-(1-methyl-1H-pyrazol-4-yl)-N-(1-(3′-(piperazine-1-carbonyl)-[1,1′-biphenyl]-3-carbonyl)pyrrolidin-3-yl)nicotinamide], for which the IC50 is above 1 µM.

`Cn1cc(-c2cnc(N)c(C(=O)N[C@@H]3CCN(C(=O)c4cccc(-c5ccc(C(=O)N6CCNCC6)cc5)c4)C3)c2)cn1` [Example 465, (R)-2-amino-5-(1-methyl-1H-pyrazol-4-yl)-N-(1-(4′-(piperazine-1-carbonyl)-[1,1′-biphenyl]-3-carbonyl)pyrrolidin-3-yl)nicotinamide]: the IC50 was above 1 µM.
